Experimental data as given in ChEMBL document CHEMBL3879912, “4-alkoxy/aralkoxy-5-substituted-pyrrolopyrimidine compounds as TAK1 inhibitors in disease treatment” (2014).

Target: TAK1/TAB1 (Homo sapiens, UniProt O43318)
Assay: Inhibition of kinase tracer-236 binding to full length recombinant human His-tagged TAK1-TAB1 expressed in baculovirus by FRET assay

TAK1/TAB1, sequence (Q15750 whole entry): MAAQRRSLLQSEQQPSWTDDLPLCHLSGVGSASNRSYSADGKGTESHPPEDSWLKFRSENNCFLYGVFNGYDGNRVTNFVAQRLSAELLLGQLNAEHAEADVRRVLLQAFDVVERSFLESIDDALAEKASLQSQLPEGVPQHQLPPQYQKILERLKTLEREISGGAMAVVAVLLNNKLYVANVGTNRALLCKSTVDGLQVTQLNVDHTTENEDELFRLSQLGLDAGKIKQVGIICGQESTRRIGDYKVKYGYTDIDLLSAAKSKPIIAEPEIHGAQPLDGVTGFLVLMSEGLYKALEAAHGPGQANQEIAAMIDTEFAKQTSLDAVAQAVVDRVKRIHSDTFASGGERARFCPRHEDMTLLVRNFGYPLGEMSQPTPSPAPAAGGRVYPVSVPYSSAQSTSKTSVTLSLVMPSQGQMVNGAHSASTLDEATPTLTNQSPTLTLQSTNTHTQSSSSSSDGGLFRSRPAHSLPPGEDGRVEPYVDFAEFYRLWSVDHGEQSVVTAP
TAK1/TAB1, sequence (O43318 whole entry): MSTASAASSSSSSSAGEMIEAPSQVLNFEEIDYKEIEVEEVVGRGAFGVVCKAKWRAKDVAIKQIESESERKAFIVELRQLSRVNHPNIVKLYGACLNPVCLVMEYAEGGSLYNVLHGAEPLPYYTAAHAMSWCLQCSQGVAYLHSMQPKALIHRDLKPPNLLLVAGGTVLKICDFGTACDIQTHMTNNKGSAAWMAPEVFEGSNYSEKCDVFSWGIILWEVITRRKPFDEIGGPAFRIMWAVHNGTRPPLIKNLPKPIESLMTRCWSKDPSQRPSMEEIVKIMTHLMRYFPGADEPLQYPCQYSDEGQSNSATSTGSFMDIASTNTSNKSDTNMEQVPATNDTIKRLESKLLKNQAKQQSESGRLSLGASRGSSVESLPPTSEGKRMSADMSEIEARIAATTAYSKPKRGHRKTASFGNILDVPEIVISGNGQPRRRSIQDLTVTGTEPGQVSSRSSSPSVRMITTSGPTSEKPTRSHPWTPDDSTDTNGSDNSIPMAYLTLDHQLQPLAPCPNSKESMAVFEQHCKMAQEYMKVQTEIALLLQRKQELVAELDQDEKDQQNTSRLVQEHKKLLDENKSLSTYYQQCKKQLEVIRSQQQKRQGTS

Row | Compound | IC50
1 | CC(=O)c1c[nH]c2ncnc(OCC(C)C)c12 | 1700 nM
2 | CC(C)COc1ncnc2[nH]cc(C#CC(N)=O)c12 | 7 nM
3 | COC(=O)/C(C)=C/c1c[nH]c2ncnc(OCC(C)C)c12 | 430 nM
4 | NC(=O)/C=C/c1c[nH]c2ncnc(OCc3cccc(F)c3)c12 | 51 nM
5 | N#C/C=C/c1c[nH]c2ncnc(OCc3ccccc3)c12 | 330 nM
